Assay results published in ChEMBL document CHEMBL3045192, “Medicinal chemistry of polycyclic cage compounds in drug discovery research” (Med Chem Res, 2008).
The source made the active and inactive calls. The calls are words filed in the database; no cut-off is given here.

What was measured:
[1] = tested on: Human alphaherpesvirus 2; experiment: Antiviral activity against Human herpesvirus 2; format: functional, organism-based
[2] = tested on: Influenza A virus; experiment: Antiviral activity against Influenza A virus A2/Taiwan; format: functional, organism-based

## NC1C2C3CC4C5CC(C42)C1(c1ccccc1)C53 (racemic)
[1]
  Activity: Active
[2]
  Activity: Active
